Experimental findings from ChEMBL document CHEMBL4196212, “Targeting Cytochrome P450 (CYP) 1B1 Enzyme with Four Series of A-Ring Substituted Estrane Derivatives: Design, Synthesis, Inhibitory Activity, and Selectivity” (J Med Chem, 2018) are described below.

As a reminder, the IC50 is the midpoint of a concentration-inhibition curve. In general, inhibition refers to the drop in the measured response relative to a control, in per cent.

One data set addresses T1, Cytochrome P450 1A1 (Homo sapiens, UniProt P04798).
T1 sequence (P04798 whole entry): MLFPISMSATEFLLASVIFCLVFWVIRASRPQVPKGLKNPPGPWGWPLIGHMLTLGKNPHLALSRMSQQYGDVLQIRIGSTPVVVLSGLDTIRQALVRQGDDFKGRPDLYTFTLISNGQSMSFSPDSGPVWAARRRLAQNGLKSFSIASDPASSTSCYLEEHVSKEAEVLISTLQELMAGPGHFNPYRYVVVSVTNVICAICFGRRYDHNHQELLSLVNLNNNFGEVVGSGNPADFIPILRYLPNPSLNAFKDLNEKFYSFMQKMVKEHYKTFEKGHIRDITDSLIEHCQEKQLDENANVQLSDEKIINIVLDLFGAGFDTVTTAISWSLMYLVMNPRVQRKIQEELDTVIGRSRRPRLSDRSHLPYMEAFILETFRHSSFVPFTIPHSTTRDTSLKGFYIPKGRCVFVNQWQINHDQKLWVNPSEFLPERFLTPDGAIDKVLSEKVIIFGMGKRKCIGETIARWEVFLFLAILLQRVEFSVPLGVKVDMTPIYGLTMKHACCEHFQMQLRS
Put plainly: Inhibition of recombinant human CYP1A1 incubated for 25 mins using 7-ethyl-O-resorufin substrate in presence of NADPH regenerating system by fluorescence based ethoxyresorufin-O-deethylase assay. Format: ADME.

For another data set, the species on record is Homo sapiens. Put plainly: Selectivity index, ratio of IC50 for inhibition of recombinant human CYP1A1 to IC50 for inhibition of recombinant human CYP1B1.
A further data set addresses T2, Cytochrome P450 1B1 (Homo sapiens, UniProt Q16678).
T2 sequence (Q16678 whole entry): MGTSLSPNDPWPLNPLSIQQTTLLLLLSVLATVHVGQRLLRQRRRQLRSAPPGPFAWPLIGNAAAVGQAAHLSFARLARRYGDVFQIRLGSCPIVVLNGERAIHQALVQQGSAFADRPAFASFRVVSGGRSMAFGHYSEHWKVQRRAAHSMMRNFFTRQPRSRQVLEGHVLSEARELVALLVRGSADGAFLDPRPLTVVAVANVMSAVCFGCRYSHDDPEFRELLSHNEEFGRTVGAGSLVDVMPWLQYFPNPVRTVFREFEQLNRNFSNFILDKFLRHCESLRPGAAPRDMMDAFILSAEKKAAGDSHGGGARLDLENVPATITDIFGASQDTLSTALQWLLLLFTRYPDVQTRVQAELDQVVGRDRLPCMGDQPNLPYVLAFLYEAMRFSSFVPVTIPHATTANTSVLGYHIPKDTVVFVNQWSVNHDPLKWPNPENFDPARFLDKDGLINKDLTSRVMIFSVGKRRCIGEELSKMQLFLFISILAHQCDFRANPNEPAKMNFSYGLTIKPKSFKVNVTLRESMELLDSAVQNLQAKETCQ
Description: Inhibition of recombinant human CYP1B1 incubated for 45 mins using 7-ethyl-O-resorufin substrate in presence of NADPH regenerating system by fluorescence based ethoxyresorufin-O-deethylase assay.

Data set [1] has as its target T3, CYP1A1 (Homo sapiens, UniProt P04798).
T3 sequence (P04798 whole entry): T1 sequence (P04798 whole entry)
Put plainly: Inhibition of recombinant human CYP1A1 at 0.3 uM incubated for 25 mins using 7-ethyl-O-resorufin substrate in presence of NADPH regenerating system by fluorescence based ethoxyresorufin-O-deethylase assay. Format: ADME. The following applies: recombinant human CYP1A1, probe 7-ethyl-O-resorufin (7-ethoxyresorufin).

For data set [2], the target named is T3, CYP1A1. Put plainly: Inhibition of recombinant human CYP1A1 at 3 uM incubated for 25 mins using 7-ethyl-O-resorufin substrate in presence of NADPH regenerating system by fluorescence based ethoxyresorufin-O-deethylase assay. It is filed as ADME. The following applies: recombinant human CYP1A1, probe 7-ethyl-O-resorufin (7-ethoxyresorufin).
Data set [3] addresses T4, CYP1B1 (Homo sapiens, UniProt Q16678).
T4 sequence (Q16678 whole entry): T2 sequence (Q16678 whole entry)
Description: Inhibition of recombinant human CYP1B1 at 3 uM incubated for 45 mins using 7-ethyl-O-resorufin substrate in presence of NADPH regenerating system by fluorescence based ethoxyresorufin-O-deethylase assay. As to conditions: recombinant human CYP1B1, probe 7-ethyl-O-resorufin (7-ethoxyresorufin).

Data set [4] concerns the target T4, CYP1B1. Description: Inhibition of recombinant human CYP1B1 at 0.3 uM incubated for 45 mins using 7-ethyl-O-resorufin substrate in presence of NADPH regenerating system by fluorescence based ethoxyresorufin-O-deethylase assay. As to conditions: recombinant human CYP1B1, probe 7-ethyl-O-resorufin (7-ethoxyresorufin).

For the compound `C[C@]12CC[C@@H]3c4cc(-c5ccncc5)c(O)cc4CC[C@H]3[C@@H]1CC[C@@H]2O`, the figures for the IC50 on Cytochrome P450 1A1 and at Cytochrome P450 1B1 were 3.9 µM and 240 nM, respectively. Further, in the data set filed under Homo sapiens, the Ratio IC50 turned out to be 16. Further, the inhibition at 25 min, 0.3 µM on CYP1A1 [1] amounted to 5%. Also, on CYP1A1 [2], the inhibition at 25 min, 3 µM was determined as 14%. Besides, the inhibition at 0.75 h, 3 µM at CYP1B1 [3] came out at 102%.

Take `C#C[C@]1(O)CC[C@H]2[C@@H]3CCc4cc(O)c(-c5ccc(OC)cc5)cc4[C@H]3CC[C@@]21C`: the IC50 at Cytochrome P450 1A1 came to 9.2 µM; on Cytochrome P450 1B1, 370 nM. Also, the Ratio IC50 in the data set filed under Homo sapiens was found to be 25. The inhibition at 0.75 h, 0.3 µM on CYP1B1 [4] is 58%. The inhibition at 25 min, 0.3 µM on CYP1A1 [1] came out at 7%. In addition, at CYP1A1 [2], the inhibition at 25 min, 3 µM was determined as 23%. Further, the inhibition at 0.75 h, 3 µM at CYP1B1 [3] amounted to 94%.

As for `C[C@]12CC[C@@H]3c4cc(-c5ccc(F)cc5)c(O)cc4CC[C@H]3[C@@H]1CC[C@@H]2O`, the IC50 is 4.9 µM on Cytochrome P450 1A1 and 240 nM at Cytochrome P450 1B1. Moreover, the Ratio IC50 in the data set listed under Homo sapiens was found to be 20. Also, on CYP1B1 [4], the inhibition at 0.75 h, 0.3 µM was determined as 91%. The inhibition at 25 min, 0.3 µM at CYP1A1 [1] is 3%. The inhibition at 25 min, 3 µM at CYP1A1 [2] turned out to be 0%. Moreover, the inhibition at 0.75 h, 3 µM at CYP1B1 [3] amounted to 103%.

Regarding `O=c1cc(-c2ccccc2)oc2c1ccc1ccccc12` [ALPHA-NAPHTHOFLAVONE], on Cytochrome P450 1A1, the IC50 stood at 2.7 µM. The inhibition at 25 min, 0.3 µM at CYP1A1 [1] turned out to be 30%. Besides, the inhibition at 25 min, 3 µM at CYP1A1 [2] is 75%. Moreover, the inhibition at 0.75 h, 3 µM on CYP1B1 [3] was 101%.

As to `C[C@]12CC[C@@H]3c4cc(-c5ccc(F)c(F)c5)c(O)cc4CC[C@H]3[C@@H]1CC[C@@H]2O`, the inhibition at 0.75 h, 0.3 µM on CYP1B1 [4] turned out to be 92%. On CYP1A1 [1], the inhibition at 25 min, 0.3 µM was found to be 2%. Further, the inhibition at 25 min, 3 µM at CYP1A1 [2] came to 47%. In addition, the inhibition at 0.75 h, 3 µM at CYP1B1 [3] was 100%.

Regarding `C[C@]12CC[C@@H]3c4cc(-c5cccc(Cl)c5)c(O)cc4CC[C@H]3[C@@H]1CC[C@@H]2O`, the inhibition at 0.75 h, 0.3 µM on CYP1B1 [4] was 91%. Further, on CYP1A1 [1], the inhibition at 25 min, 0.3 µM is 16%. Besides, the inhibition at 25 min, 3 µM on CYP1A1 [2] amounted to 51%. Also, on CYP1B1 [3], the inhibition at 0.75 h, 3 µM is 100%.
